What was measured:
[1] = molecular target: 20S proteasome (Homo sapiens, UniProt P28072+P28074); assay: Native gel analysis of proteasomal complexes, Suc-LLVY-AMC substrate overlay; assay type: biochemical; settings: control cells, 12 nM, 24 hours
Excerpt: FIGS. 2A-2F: Reducing expression of 19S subunits increases the levels of active 20S proteasomes and protects cancer cells from proteasome (FIG. 2A) HepG2 cells were infected with 80 shRNAs targeting 20 different subunits of the proteasome and 10 control shRNAs. Infected cells were then exposed to […] bortezomib and cell number was examined 4 days later. The plot represents the average (+/−SEM) of four different hairpins targeting the indicated proteasome subunits and their relative cell number following bortezomib treatment. 19S subunits are depicted with orange bars, the control with a blue bar and 20S subunits with green bars. […] (FIG. 2C) The relative cell number of cells harboring a control shLacZ or each of 4 individual shRNAs targeting shPSMD2 was analyzed 4 days after addition of the indicated concentrations of bortezomib. (FIG. 2D) HepG2 cells stably expressing four different shRNAs targeting the PSMD2 subunit and a control shRNA (lacZ) were analyzed by western blot for the indicated proteins 24 hours with or without bortezomib treatment. […] Proteasome complex levels were detected by immunoblot analysis and 20S proteasome activity by measuring the hydrolysis of Suc-LLVY-AMC by substrate overlay assays. * p<0.05 **p<0.01. […]

[2] = system: T47D cells; assay: Competition co-culture of TurboRFP PSMD2 shRNA and GFP control shRNA T47D cells, FACS/microscopy; assay type: cell-based, human; settings: 5 nM, 48 hours
Description: We created two cell lines—one line that expresses red fluorescent protein (turboRFP) and the doxycycline-inducible PSMD2-targeting shRNA and another line that expresses green fluorescent protein (GFP) and a doxycycline-inducible control shRNA (FIG. 6A). First, we induced shRNA expression with doxycycline for 48 hours. After recovery, we mixed shPSMD2-RFP and shControl-GFP cells at different ratios (either 1:1, 1:2, 1:5 or 1:10), adding the cells with reduced PSMD2 as the minority subpopulation. Twenty-four hours after plating, we treated these mixed populations of cells for 48 hours with increasing concentrations of bortezomib (5, 7.5 or 10 nM). We allowed the cells to recover in the absence of bortezomib and then we quantified the red and green cells by FACS analysis (FIG. 6A) and captured representative images by fluorescence microscopy (FIG. 6B),
The experiment described in Example 10 was repeated with minor differences using a panel of different proteasome inhibitors: MLN2238, MLN9708, and oprozomib T47D cells harboring a doxycycline inducible control shRNA (GFP) or a doxycycline-inducible PSMD2 shRNA (TurboRFP) were incubated with doxycycline for 3 days. Cells were collected, counted, and plated at a 1:10 ratio of TurboRFP-expressing PSMD2 shRNA cells/GFP expression control shRNA cells in the absence of Dox. Proteasome inhibitors were added at the specified concentrations and cells were maintained in culture. Cells were allowed to recover in the absence of the proteasome inhibitor and then analyzed by FACS (FIG. 8B, top) or visualized by microscopy (FIG. 8B, bottom). In the absence of proteasome inhibitors, the initial plating ratio of these cells (1:10) was maintained over the duration of the experiment (FIG. 8B). […]
Visualization and FACS analysis of GFP/RFP levels—cells were trypsinized in 100 μL Accumax® solution and further diluted into 100 μl PBSx1. The number of cells with red or areen fluorescent proteins was measured by MACSQuant® VYB according to manufactures protocol. […]

[3] = molecular target: T1, FDX1 (Homo sapiens, UniProt P10109); assay: In vitro Fe-S cluster assembly with reduced FDX1 (absorbance at 456 nm); assay type: biochemical
T1 construct: made in house
T1 sequence (P10109 62-184): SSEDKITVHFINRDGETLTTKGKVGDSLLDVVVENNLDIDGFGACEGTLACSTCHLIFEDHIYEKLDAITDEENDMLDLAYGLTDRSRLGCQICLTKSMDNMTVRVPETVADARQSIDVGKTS
Excerpt: FIGS. 47A-47C: Inhibition of Fe—S formation by elesclomol and variants (in-vitro). […] Note: “x(number) concentration” means that the indicated compound was present at 5 times the concentration of the enzyme.
(FIG. 53A) provides a schematic describing mitochondrial Fe—S cluster biosynthesis. The mitochondrial ISC (iron-sulfur cluster) core complex contains the scaffold protein ISCU and cysteine desulfurase (ACP-ISD11-NFS1)2. The latter catalyzes the conversion of cysteine to alanine and generates S° for iron sulfur cluster assembly. S° is reduced by FDX1. A [2Fe-2S] cluster is subsequently formed on ISCU. […] In vitro Fe—S cluster assembly was carried out with reduced. FDX1 as the reducing agent in the presence or absence of either 5× (green) or 10× (yellow) elesclomol (both relative to FDX1). Fe—S cluster formation was monitored by following the increase of absorbance at 456 nm. […] The red triangle denotes an NMR peak that became severely broadened. […] The [2Fe-2S] cluster in FDX1 is indicated by spheres.
The in vitro Fe—S cluster assembly was carried out with reduced FDX1 as the reducing agent and detected by following the increase of absorbance at 456 tun following the addition of either of 5× (green) or 10× (yellow, both relative to FDX1) compound-1. […] Fe—S formation was monitored by following the increase of absorbance at 456 nm. […] Cysteine desulfurase activity assay carried out with the indicated concentrations of elesclomol.

| SMILES | 20S proteasome function [1] | shift of surviving population toward PSMD2 shRNA cells [2] | in vitro Fe-S cluster assembly with reduced FDX1 ([3]; 5x or 10x relative to FDX1) | in vitro formation of Fe-S clusters mediated by FDX1 ([3]; x5 concentration relative to enzyme) |
| --- | --- | --- | --- | --- |
| CC(C)C[C@H](NC(=O)[C@H](Cc1ccccc1)NC(=O)c1cnccn1)B(O)O [bortezomib] | nearly complete inactivation | substantially shifted the populations of surviving cells | – | – |
| CN(NC(=O)CC(=O)NN(C)C(=S)c1ccccc1)C(=S)c1ccccc1 [elesclomol] | – | – | inhibits in vitro Fe—S cluster assembly | sufficient to induce an inhibitory effect |
